Converted amounts (≈) assume the structure as drawn.
Columns and labels:
[1] = system: Klebsiella pneumoniae CDC 0044; assay: MIC and MBC against Meropenem-resistant Klebsiella; assay type: cell-based; details: Meropenem-resistant strain, before combination
biofilm = assay: Biofilm eradication by cell-penetrating peptide alone; assay type: cell-based; details: CPP alone, spot plated on LB agar
Excerpt: FIG. 20: Cell-penetrating peptide alone cannot eradicate the biofilm; the entire entity of AuNCs was required for biofilm eradication. […] Each spot represents an independent experiment (n=3).

[2] = system: PA CSOM logarithmic culture; assay: Persistence assay, PA CSOM; assay type: cell-based, Pseudomonas aeruginosa; details: ofloxacin 100 μg/mL, 24 h
Procedure: (§1) FIGS. 2A-2B: Increasing the fraction of persister cells promotes biofilm tolerance to ofloxacin. FIG. 2A) Susceptibility of surviving persister cells in logarithmic-phase culture. […] Data are presented as mean±s.d. (n=3). FIG. 2B) Comparison of persister cell fraction between PAO1 and PA CSOM in logarithmic-phase culture. Cells of logarithmic-phase were treated with ofloxacin ([…]) for 24 h and then plated for colony counting. The persister fraction was calculated as the ratio between the number of surviving bacteria after ofloxacin treatment compared to that measured in the corresponding untreated control (PBS). Data are presented as mean±s.d. (n=3). Statistical comparisons were done using a two-tailed t-test as indicated. ****p≤0.0001 and **p≤0.01.
(§2) PA01 and PA CSOM cultures were incubated at 37° C. with shaking. 1 mL of culture from each strain was aliquoted when reaching an OD600 of 0.3. Cultures were gently rinsed to remove LB medium and replaced with 1 mL of PBS. Ofloxacin (100 μg/mL) was added to the culture flasks (except for the control flasks). After 24 h incubation, ofloxacin was removed and the number of colony-forming units per milliliter (CFU/mL) was determined. […] The fraction of persister cells was calculated as the ratio of the CFU/mL after ofloxacin treatment to the CFU/mL of the control flasks.

[3] = system: stationary phase planktonic PA; assay: Killing of stationary phase planktonic PA; assay type: cell-based, Pseudomonas aeruginosa; details: 24 hr treatment, AuNC@CPP (16000 μg/mL), OFL (750 μg/mL)
[4] = system: PA01 (chromosomally encoded luminescent) biofilm; assay type: cell-based, Pseudomonas aeruginosa; details: 10-day-old PA01 biofilm, 24 hr treatment
Procedure: Biofilms of PA01 (10-day-old) were grown in the commercially available Calgary Biofilm Device (a 96-well plate)/minimum biofilm eradication concentration (MBEC) assay plate (46). […] Wells were washed with PBS and biofilms were disrupted with sonication and incubated in recovery media for turbidity measurements. A well was considered to have biofilm eradicated if the optical density at 650 nm (OD650) was less than 0.1 after 24 hours.

PA CSOM = assay: Minimum inhibitory concentration against PA CSOM; assay type: cell-based; details: Pseudomonas aeruginosa
PA01 logarithmic culture = assay: Persistence assay, PA01; assay type: cell-based, Pseudomonas aeruginosa; details: ofloxacin 100 μg/mL, 24 h
Procedure: as §1, §2

[5] = system: P. aeruginosa clinical otopathogenic strain (PA CSOM) biofilm; assay: MBEC Assay biofilm eradication, 48 h old PA CSOM biofilm; assay type: cell-based, Pseudomonas aeruginosa; details: 24 h treatment
Procedure: (§3) (1-2) Bacteria culture is prepared and dispensed into a 96-well microplate. (3) The peg lid is placed in the bacteria culture and incubated to generate the biofilm. (4) The peg lid is gently rinsed to removed planktonic bacteria and a serial diluted test solution is dispensed into a new 96-well microplate. (5) The pegs covered in biofilm are incubated in the test solutions. (6) The peg lid is again gently rinsed to remove planktonic bacteria and placed in a new 96-well microplate containing recovery media. The peg lid is then sonicated to dislodge the biofilm into the recovery media. (7) Following sonication, the peg lid is replaced with a regular 96-well microplate lid and the plate containing recovery media is incubated. Following incubation, the OD650 absorbance is read on a spectrophotometer. Wells with an OD650 of less than 0.1 is evidence of biofilm eradication. (8) Spot plated on LB agar plates is use to confirm biofilm eradication.
(§4) Then, the minimum biofilm eradication concentration (MBEC) of FLOXIN®Otic against 48 h old PA01 and PA CSOM biofilms were determined using the commercially available MBEC Assay® (Innovotech Inc. Edmonton, Canada). […] Although PA CSOM produced quantitatively less biofilms than PAO1, it had the highest tolerance to ofloxacin. […]

PA01 = assay: Minimum inhibitory concentration against PA01; assay type: cell-based; details: Pseudomonas aeruginosa
[6] = system: PA CSOM surviving persister cells, logarithmic-phase culture; assay: Ofloxacin sensitivity of resuscitated persister cells in logarithmic-phase culture; assay type: cell-based, Pseudomonas aeruginosa; details: ofloxacin 100 μg/mL, 24 h
Procedure: FIG. 8: Cartoon depicting the flowchart to evaluate ofloxacin sensitivity to persister cells resuscitation in logarithmic-phase culture. (1) Surviving persister cells following the treatment of PA CSOM biofilm with ofloxacin at 3000 μg/mL were replaced in fresh media and incubated at 37° C. and were aerated at 225 r.p.m. (2) Cells in logarithmic-phase (OD600=0.3) were treated with either phosphate-buffered saline (PBS) or ofloxacin (100 μg/mL) for 24 h. (3) following the treatment, cells were plated to determine the number of bacteria per milliliter (CFU/mL).
The drug-refractory state associated with PA CSOM biofilm formation is mediated by tolerance rather than resistance to the antibiotic.

[7] = system: P. aeruginosa wild-type PA01 biofilm; assay: MBEC Assay biofilm eradication, 48 h old PA01 biofilm; assay type: cell-based, Pseudomonas aeruginosa; details: 24 h treatment
Procedure: as §3, §4

## C[C@@H](O)[C@H]1C(=O)N2C(C(=O)O)=C(S[C@@H]3CN[C@H](C(=O)N(C)C)C3)[C@H](C)[C@H]12 [Meropenem]
[1]
  MBC: > 200 µg/mL

## Ac-(YGRKKRRQRRR SEQ ID NO:7)-(β-Ala)-(β-Ala)-(β-Ala)-Cys-CONH2 (N-acetyl, three beta-Ala, Cys amide; TAT cell-penetrating peptide) [CPP, cell-penetrating peptide alone, component of AuNC@CPP]
biofilm
  concentration without any biofilm eradication: > 4000 µg/mL

## CC1COc2c(N3CCN(C)CC3)c(F)cc3c(=O)c(C(=O)O)cn1c23 (centres unmarked) [ofloxacin]
[2]
  fraction of persister cells: 0.07%
[3]
  remaining CFU: 10^3
[4]
  MBEC: 750 µg/mL
PA CSOM
  MIC: 52.5 to 100 µg/mL (≈ 145 to 277 µM)
PA01 logarithmic culture
  fraction of persister cells of total bacteria population: 0.0005%
[5]
  minimum biofilm eradication concentration (MBEC): > 3000 µg/mL
PA01
  MIC: 1.6 to 3.3 µg/mL (≈ 4.43 to 9.13 µM)
[6]
  decrease in number of bacteria per milliliter (CFU/mL): 3 log 10
[7]
  minimum biofilm eradication concentration (MBEC): 750 µg/mL

— US20230149561A1, “Functionalized Nanoparticles and Their Use in Treating Bacterial Infections” (The Board of Trustees of the Leland Stanford Junior …, priority 2019, published 2023)
